Results on one compound are retold here after ChEMBL document CHEMBL1148472, “Jatrophane diterpenes as modulators of multidrug resistance. Advances of structure-activity relationships and discovery of the potent lead pepluanin A” (J Med Chem, 2004).

SMILES strings stand for the structures.

This data set has as its target ATP-dependent translocase ABCB1 (Homo sapiens, UniProt P08183). The experiment in a line: TP_TRANSPORTER: cell accumulation of daunomycin in human K562/R7 leukemic cells. The class given is functional, cell-based.

ATP-dependent translocase ABCB1, sequence (P08183 whole entry): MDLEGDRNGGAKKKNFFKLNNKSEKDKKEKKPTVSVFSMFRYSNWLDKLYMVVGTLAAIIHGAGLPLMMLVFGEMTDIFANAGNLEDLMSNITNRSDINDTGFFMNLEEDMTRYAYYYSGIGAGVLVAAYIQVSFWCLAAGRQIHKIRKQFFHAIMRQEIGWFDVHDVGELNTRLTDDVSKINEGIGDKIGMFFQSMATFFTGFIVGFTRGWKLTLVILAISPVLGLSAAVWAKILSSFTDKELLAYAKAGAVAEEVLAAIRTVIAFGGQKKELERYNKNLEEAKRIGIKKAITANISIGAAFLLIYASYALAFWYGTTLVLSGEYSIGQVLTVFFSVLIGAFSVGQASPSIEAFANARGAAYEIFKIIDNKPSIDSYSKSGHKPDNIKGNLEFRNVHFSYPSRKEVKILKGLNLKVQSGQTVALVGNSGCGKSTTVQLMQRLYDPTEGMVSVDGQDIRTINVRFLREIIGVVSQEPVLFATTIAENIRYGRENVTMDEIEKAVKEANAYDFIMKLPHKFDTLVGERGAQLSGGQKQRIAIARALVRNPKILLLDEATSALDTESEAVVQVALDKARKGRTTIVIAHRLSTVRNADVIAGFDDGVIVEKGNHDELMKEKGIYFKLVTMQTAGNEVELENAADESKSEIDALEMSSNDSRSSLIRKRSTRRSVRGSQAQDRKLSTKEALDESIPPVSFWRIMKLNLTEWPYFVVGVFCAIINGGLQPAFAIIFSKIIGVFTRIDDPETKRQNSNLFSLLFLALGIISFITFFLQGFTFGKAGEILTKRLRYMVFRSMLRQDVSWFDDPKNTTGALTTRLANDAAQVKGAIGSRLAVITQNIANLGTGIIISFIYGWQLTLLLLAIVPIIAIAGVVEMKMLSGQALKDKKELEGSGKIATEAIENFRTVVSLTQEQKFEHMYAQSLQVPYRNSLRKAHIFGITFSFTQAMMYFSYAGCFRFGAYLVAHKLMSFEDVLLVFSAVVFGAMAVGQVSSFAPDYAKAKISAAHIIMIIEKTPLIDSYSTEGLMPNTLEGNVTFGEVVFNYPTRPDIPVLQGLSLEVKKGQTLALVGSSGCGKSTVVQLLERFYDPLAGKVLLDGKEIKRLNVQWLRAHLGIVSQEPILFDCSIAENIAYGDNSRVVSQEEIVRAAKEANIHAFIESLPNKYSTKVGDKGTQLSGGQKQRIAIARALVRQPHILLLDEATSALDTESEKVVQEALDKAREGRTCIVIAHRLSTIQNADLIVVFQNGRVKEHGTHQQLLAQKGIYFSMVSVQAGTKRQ

As to `C=C1[C@@H](OC(C)=O)[C@@H](OC(C)=O)[C@@H](OC(=O)c2cccnc2)C(C)(C)/C=C/[C@H](C)[C@H](OC(C)=O)[C@@]2(O)C[C@@](C)(OC(C)=O)[C@H](OC(=O)c3ccccc3)[C@@H]2[C@H]1OC(C)=O` [PEPLUANIN], the Activity entry is “inhibitor [+]”.
